Results: patent publication US10323038B2, “Pyrazole compounds and methods of making and using same” (ABIDE THERAPEUTICS, INC., priority 2015, dated 2019)

Key:
MAGL = MAGL (Mus musculus (Mouse), UniProt O35678); test: In vitro competitive activity-based protein profiling, MAGL (mouse); assay type: biochemical; settings: for inhibition at 1 µM: read-out: MAGL % inh. 1 μM (mouse)
Method in brief: (§1)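 Residual MAGL and FAAH activity quantified from fluorescent gel bands after SDS-PAGE. Before that, FP-Rh or HT-01 probe (50 μM stock) labelled for 30 min at 37 °C, following 30 min inhibitor preincubation. Mouse assays used brain membrane fraction or cell lysates, human used prefrontal cortex or cell membranes, all at 1.0 mg/mL protein.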

FAAH = FAAH (Mus musculus (Mouse), UniProt O08914); test: In vitro competitive activity-based protein profiling, FAAH (mouse); assay type: biochemical; settings: for inhibition at 1 µM: read-out: FAAH % inh. 1 μM (mouse)
Chain of FAAH (O08914 whole entry): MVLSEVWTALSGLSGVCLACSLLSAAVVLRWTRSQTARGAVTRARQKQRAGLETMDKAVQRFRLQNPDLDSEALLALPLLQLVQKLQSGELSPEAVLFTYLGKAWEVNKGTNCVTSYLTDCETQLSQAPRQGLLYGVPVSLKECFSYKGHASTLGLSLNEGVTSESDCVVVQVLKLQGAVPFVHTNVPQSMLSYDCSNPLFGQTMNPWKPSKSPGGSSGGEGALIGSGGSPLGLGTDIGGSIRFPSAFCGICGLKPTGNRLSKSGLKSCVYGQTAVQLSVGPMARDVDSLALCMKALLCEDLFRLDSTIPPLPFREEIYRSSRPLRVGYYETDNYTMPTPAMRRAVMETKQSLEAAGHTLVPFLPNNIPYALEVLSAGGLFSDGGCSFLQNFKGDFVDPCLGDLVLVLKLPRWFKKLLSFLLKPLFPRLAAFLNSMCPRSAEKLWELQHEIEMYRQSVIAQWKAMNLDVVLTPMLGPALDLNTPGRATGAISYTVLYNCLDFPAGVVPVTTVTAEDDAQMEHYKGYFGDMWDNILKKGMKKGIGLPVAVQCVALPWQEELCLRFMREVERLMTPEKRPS
Method in brief: as §1

Chain of MAGL (O35678 whole entry): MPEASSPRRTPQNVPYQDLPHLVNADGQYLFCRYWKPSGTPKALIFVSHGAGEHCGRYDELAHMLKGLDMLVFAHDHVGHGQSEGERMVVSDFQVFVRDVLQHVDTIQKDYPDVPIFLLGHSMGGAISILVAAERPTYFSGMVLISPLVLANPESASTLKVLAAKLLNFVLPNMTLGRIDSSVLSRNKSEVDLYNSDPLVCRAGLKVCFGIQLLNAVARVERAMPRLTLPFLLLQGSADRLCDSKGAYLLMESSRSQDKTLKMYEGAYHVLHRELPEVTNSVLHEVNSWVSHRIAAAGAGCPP

| IC50 (MAGL) | inhibition at 1 µM (MAGL) | IC50 (FAAH) | inhibition at 1 µM (FAAH) | Structure (SMILES) |
| --- | --- | --- | --- | --- |
| ≤ 100 nM | ≥ 75% | 100 to 1000 nM | ≥ 75% | CS(=O)(=O)Nc1cnn(C(=O)N2CC3CN(Cc4ccc(N5CCCC5)cc4C(F)(F)F)CC3C2)c1 (stereo not drawn) [Example 279, N-(1-(5-(4-(pyrrolidin-1-yl)-2-(trifluoromethyl)benzyl)octahydropyrrolo [3,4-c]pyrrole-2-carbonyl)-1H-pyrazol-4-yl)methanesulfonamide] |
|  | ≥ 75% |  | ≥ 75% | CN(Cc1ccccc1C(F)(F)F)[C@H]1C[C@@H]2CN(C(=O)n3cc(NS(C)(=O)=O)cn3)C[C@@H]2C1 [Example 299, N-(1-(trans-5-(methyl(2-(trifluoromethyl)benzyl)amino)octahydrocyclopenta[c]pyrrole-2-carbonyl)-1H-pyrazol-4-yl)methanesulfonamide] |
| ≤ 100 nM | ≥ 75% | ≤ 100 nM | ≥ 75% | CC(=O)N(C)c1cnn(C(=O)N2CCC3(CC2)CN(Cc2ccc(Cl)c(Cl)c2)C3)c1 [Example 24, N-(1-(2-(3,4-dichlorobenzyl)-2,7-diazaspiro[3.5]nonane-7-carbonyl)-1H-pyrazol-4-yl)-N-methylacetamide] |
|  | ≥ 75% |  | 0 to 25% | CC(=O)N(C)c1cnn(C(=O)N2CCC3(CC2)CN(Cc2ccccc2N2CCCC2)C3)c1 [Example 45, N-methyl-N-(1-(2-(2-(pyrrolidin-1-yl)benzyl)-2,7-diazaspiro[3.5]nonane-7-carbonyl)-1H-pyrazol-4-yl)acetamide] |
| ≤ 100 nM | ≥ 75% | ≤ 100 nM | ≥ 75% | CC(=O)N(C)c1cnn(C(=O)N2CC3CN(Cc4c(Cl)cccc4Cl)CC3C2)c1 (stereo not drawn) [Example 111, N-(1-(5-(2,6-dichlorobenzyl)octahydropyrrolo[3,4-c]pyrrole-2-carbonyl)-1H-pyrazol-4-yl)-N-methylacetamide] |
|  | ≥ 75% |  | ≥ 75% | CC(=O)N(C)c1cnn(C(=O)N2CC3CN(Cc4ccc(OC(C)C)cc4Cl)CC3C2)c1 (stereo not drawn) [Example 253, N-(1-(5-(2-chloro-4-isopropoxybenzyl)octahydropyrrolo[3,4-c]pyrrole-2-carbonyl)-1H-pyrazol-4-yl)-N-methylacetamide] |
| ≤ 100 nM | ≥ 75% | ≤ 100 nM | ≥ 75% | CC(=O)N(C)c1cnn(C(=O)N2CCC3(CCN(Cc4ccc(-c5ccccc5)cc4C)C3)C2)c1 (stereo not drawn) [Example 232, N-methyl-N-(1-(7-((3-methyl-[1,1′-biphenyl]-4-yl)methyl)-2,7-diazaspiro[4.4]nonane-2-carbonyl)-1H-pyrazol-4-yl)acetamide] |
| 1000 to 10000 nM | 50 to 75% | ≤ 100 nM | ≥ 75% | CC(=O)N(C)c1cnn(C(=O)N2CCC3(CCN(Cc4cccc(Cl)c4)C3)C2)c1 (stereo not drawn) [Example 78, N-(1-(7-(3-chlorobenzyl)-2,7-diazaspiro[4.4]nonane-2-carbonyl)-1H-pyrazol-4-yl)-N-methylacetamide] |
| 100 to 1000 nM | ≥ 75% | ≤ 100 nM | ≥ 75% | CC(=O)N(C)c1cnn(C(=O)N2CC3CN(Cc4ccc(Cl)c(Cl)c4)CC3C2)c1 (stereo not drawn) [Example 12, N-(1-(5-(3,4-dichlorobenzyl)octahydropyrrolo[3,4-c]pyrrole-2-carbonyl)-1H-pyrazol-4-yl)-N-methylacetamide] |
|  | ≥ 75% |  | ≥ 75% | CC(=O)N(C)c1cnn(C(=O)N2C[C@H]3C[C@@H](N(C)Cc4ccc(N5CCCC5)c(C(F)(F)F)c4)C[C@H]3C2)c1 [Example 153, N-methyl-N-(1-(cis-5-(methyl(4-(pyrrolidin-1-yl)-3-(trifluoromethyl)benzyl)amino)octahydrocyclopenta[c]pyrrole-2-carbonyl)-1H-pyrazol-4-yl)acetamide] |
|  | ≥ 75% |  | ≥ 75% | CC(=O)N(C)c1cnn(C(=O)N2CC3CN(Cc4ccc(-c5cccnn5)cc4Cl)CC3C2)c1 (stereo not drawn) [Example 260, N-(1-(5-(2-chloro-4-(pyridazin-3-yl)benzyl)octahydropyrrolo[3,4-c]pyrrole-2-carbonyl)-1H-pyrazol-4-yl)-N-methylacetamide] |
| 100 to 1000 nM | ≥ 75% | 100 to 1000 nM | ≥ 75% | CC(=O)N(C)c1cnn(C(=O)N2C[C@H]3C[C@H](NCc4cccc(Cl)c4)C[C@H]3C2)c1 [Example 137, N-(1-(trans-5-(3-chlorobenzylamino)octahydrocyclopenta[c]pyrrole-2-carbonyl)-1H-pyrazol-4-yl)-N-methylacetamide] |
|  | ≥ 75% |  | ≥ 75% | CC(=O)N(C)c1cnn(C(=O)N2CCC3(CCN(Cc4cc(Cl)cc(N5CCOCC5)c4)C3)C2)c1 (stereo not drawn) [Example 63, N-(1-(7-(3-chloro-5-morpholinobenzyl)-2,7-diazaspiro[4.4]nonane-2-carbonyl)-1H-pyrazol-4-yl)-N-methylacetamide] |
| 100 to 1000 nM | ≥ 75% | ≤ 100 nM | ≥ 75% | CC(=O)N(C)c1cnn(C(=O)N2CC3CN(Cc4cccc(C)c4)CC3C2)c1 (stereo not drawn) [Example 92, N-methyl-N-(1-(5-(3-methylbenzyl)octahydropyrrolo[3,4-c]pyrrole-2-carbonyl)-1H-pyrazol-4-yl)acetamide] |
| 100 to 1000 nM | ≥ 75% | 100 to 1000 nM | ≥ 75% | CC(=O)N(C)c1cnn(C(=O)N2CC3CN(Cc4ccc(N5CCCC5)cc4)CC3C2)c1 (stereo not drawn) [Example 13, N-methyl-N-(1-(5-(4-(pyrrolidin-1-yl)benzyl)octahydropyrrolo[3,4-c]pyrrole-2-carbonyl)-1H-pyrazol-4-yl)acetamide] |
|  | ≥ 75% |  | ≥ 75% | C#Cc1ccc(CN2CCN(C(=O)n3cc(N(C)C(C)=O)cn3)CC2)cc1 [Example 317, N-(1-(4-(4-ethynylbenzyl)piperazine-1-carbonyl)-1H-pyrazol-4-yl)-N-methylacetamide] |
|  | 25 to 50% |  | 0 to 25% | CC(=O)N(C)c1cnn(C(=O)N2CC3(CCN(Cc4ccc(CN5CCOCC5)cc4)CC3)C2)c1 [Example 230, N-methyl-N-(1-(7-(4-(morpholinomethyl)benzyl)-2,7-diazaspiro[3.5]nonane-2-carbonyl)-1H-pyrazol-4-yl)acetamide] |
| ≤ 100 nM | ≥ 75% | ≤ 100 nM | ≥ 75% | CC(=O)N(C)c1cnn(C(=O)N2CC3CN(Cc4cc(Cl)cc(N5CC6COCC6C5)c4)CC3C2)c1 (stereo not drawn) [Example 118, N-(1-(5-(3-chloro-5-(tetrahydro-1H-furo[3,4-c]pyrrol-5(3H)-yl)benzyl)octahydropyrrolo[3,4-c]pyrrole-2-carbonyl)-1H-pyrazol-4-yl)-N-methylacetamide] |
| 100 to 1000 nM | ≥ 75% | ≤ 100 nM | ≥ 75% | CC(=O)N(C)c1cnn(C(=O)N2CC3CN(Cc4cc(F)c(F)cc4F)CC3C2)c1 (stereo not drawn) [Example 246, N-methyl-N-(1-(5-(2,4,5-trifluorobenzyl)octahydropyrrolo[3,4-c]pyrrole-2-carbonyl)-1H-pyrazol-4-yl)acetamide] |
|  | ≥ 75% |  | ≥ 75% | CS(=O)(=O)Nc1cnn(C(=O)N2CCC3(CCN(Cc4ccc(N5CCCC5)cc4C(F)(F)F)C3)CC2)c1 [Example 280, N-(1-(2-(4-(pyrrolidin-1-yl)-2-(trifluoromethyl)benzyl)-2,8-diazaspiro[4.5]decane-8-carbonyl)-1H-pyrazol-4-yl)methanesulfonamide] |
|  | 50 to 75% |  | 0 to 25% | CC(=O)N(C)c1cnn(C(=O)N2CC3CN(Cc4ccccc4N4CCOCC4)CC3C2)c1 (stereo not drawn) [Example 185, N-methyl-N-(1-(5-(2-morpholinobenzyl)octahydropyrrolo[3,4-c]pyrrole-2-carbonyl)-1H-pyrazol-4-yl)acetamide] |
|  | ≥ 75% |  | 0 to 25% | CC(=O)N(C)c1cnn(C(=O)N2CCN(Cc3cccc(N4CCOCC4)c3)CC2)c1 [Example 210, N-methyl-N-(1-(4-(3-morpholinobenzyl)piperazine-1-carbonyl)-1H-pyrazol-4-yl)acetamide] |
|  | ≥ 75% |  | ≥ 75% | CC(=O)N(C)c1cnn(C(=O)N2CC3CN(Cc4cc(C(F)(F)F)ccc4N4CCCC4)CC3C2)c1 (stereo not drawn) [Example 128, N-methyl-N-(1-(5-(2-(pyrrolidin-1-yl)-5-(trifluoromethyl)benzyl)octahydropyrrolo[3,4-c]pyrrole-2-carbonyl)-1H-pyrazol-4-yl)acetamide] |
|  | ≥ 75% |  | 50 to 75% | CS(=O)(=O)Nc1cnn(C(=O)N2CCN(Cc3ccc(-c4ccccc4)cc3OCc3ccccc3)CC2)c1 [Example 224, N-(1-(4-((3-(benzyloxy)-[1,1′-biphenyl]-4-yl)methyl)piperazine-1-carbonyl)-1H-pyrazol-4-yl)methanesulfonamide] |
| ≤ 100 nM | ≥ 75% | 100 to 1000 nM | ≥ 75% | CC(=O)N(C)c1cnn(C(=O)N2CCC3(CC2)CN(Cc2ccc(-c4ccccc4)cc2C)C3)c1 [Example 226, N-methyl-N-(1-(2-((3-methyl-[1,1-biphenyl]-4-yl)methyl)-2,7-diazaspiro[3.5]nonane-7-carbonyl)-1H-pyrazol-4-yl)acetamide] |

| Structure (SMILES) | IC50 (MAGL) | inhibition at 1 µM (MAGL) | IC50 (FAAH) | inhibition at 1 µM (FAAH) |
| --- | --- | --- | --- | --- |
| CC(=O)N(C)c1cnn(C(=O)N2CCN(Cc3ccc(C(F)(F)F)cc3N3C4CCC3COC4)CC2)c1 [Example 195, N-(1-(4-(2-(3-oxa-8-azabicyclo[3.2.1]octan-8-yl)-4-(trifluoromethyl)benzyl)piperazine-1-carbonyl)-1H-pyrazol-4-yl)-N-methylacetamide] | ≤ 100 nM | ≥ 75% | 1000 to 10000 nM | 0 to 25% |
